ChEMBL document CHEMBL5614392, “Discovery of novel N2-indazole derivatives as phosphodiesterase 4 inhibitors for the treatment of inflammatory bowel disease” (Eur J Med Chem, 2024)
The source made the active and inactive calls. No cut-off for these calls is given here.

Tests used:
[1] = target: T1, 3',5'-cyclic-AMP phosphodiesterase 4D (Homo sapiens, UniProt Q08499); experiment: Inhibition of PDE4D7 (unknown origin) using FAM-cyclic-3'5'-AMP as substrate at 100 nM incubated for 1 hrs by fluorescence polarization assay relative to control
T1 sequence (Q08499 whole entry): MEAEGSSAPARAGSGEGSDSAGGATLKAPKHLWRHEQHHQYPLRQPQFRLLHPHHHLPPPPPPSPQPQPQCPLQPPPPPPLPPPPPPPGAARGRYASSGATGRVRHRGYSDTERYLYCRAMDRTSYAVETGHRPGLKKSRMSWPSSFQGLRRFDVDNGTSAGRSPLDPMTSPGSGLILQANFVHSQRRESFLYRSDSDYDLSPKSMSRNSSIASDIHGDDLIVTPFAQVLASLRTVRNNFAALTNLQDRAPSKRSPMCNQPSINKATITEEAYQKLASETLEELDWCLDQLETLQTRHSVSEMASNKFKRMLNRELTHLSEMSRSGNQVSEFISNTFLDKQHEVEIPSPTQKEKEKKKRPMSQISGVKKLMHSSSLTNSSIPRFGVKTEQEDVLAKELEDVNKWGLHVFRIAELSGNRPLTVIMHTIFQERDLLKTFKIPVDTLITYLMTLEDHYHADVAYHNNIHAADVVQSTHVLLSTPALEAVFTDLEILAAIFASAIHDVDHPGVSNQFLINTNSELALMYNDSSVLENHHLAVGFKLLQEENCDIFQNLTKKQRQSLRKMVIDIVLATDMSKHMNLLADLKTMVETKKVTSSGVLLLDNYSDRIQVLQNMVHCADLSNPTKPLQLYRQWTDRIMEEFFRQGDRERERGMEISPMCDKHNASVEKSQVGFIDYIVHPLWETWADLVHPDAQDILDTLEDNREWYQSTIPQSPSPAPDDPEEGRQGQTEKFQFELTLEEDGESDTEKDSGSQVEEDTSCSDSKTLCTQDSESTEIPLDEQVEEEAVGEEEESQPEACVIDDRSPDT

[2] = target: T1, 3',5'-cyclic-AMP phosphodiesterase 4D; experiment: Inhibition of PDE4D7 (unknown origin) using FAM-cyclic-3'5'-AMP as substrate incubated for 1 hrs by fluorescence polarization assay
[3] = target: T1, 3',5'-cyclic-AMP phosphodiesterase 4D; experiment: Inhibition of PDE4D7 (unknown origin) using FAM-cyclic-3'5'-AMP as substrate at 10 nM incubated for 1 hrs by fluorescence polarization assay relative to control
[4] = target: cGMP-inhibited 3',5'-cyclic phosphodiesterase 3B (Homo sapiens) (UniProt Q13370); experiment: Inhibition of PDE3B (unknown origin) using FAM-cyclic-3'5'-AMP as substrate at 10 uM incubated for 1 hrs by fluorescence polarization assay relative to control
cGMP-inhibited 3',5'-cyclic phosphodiesterase 3B (Homo sapiens), sequence (Q13370 whole entry, looked up): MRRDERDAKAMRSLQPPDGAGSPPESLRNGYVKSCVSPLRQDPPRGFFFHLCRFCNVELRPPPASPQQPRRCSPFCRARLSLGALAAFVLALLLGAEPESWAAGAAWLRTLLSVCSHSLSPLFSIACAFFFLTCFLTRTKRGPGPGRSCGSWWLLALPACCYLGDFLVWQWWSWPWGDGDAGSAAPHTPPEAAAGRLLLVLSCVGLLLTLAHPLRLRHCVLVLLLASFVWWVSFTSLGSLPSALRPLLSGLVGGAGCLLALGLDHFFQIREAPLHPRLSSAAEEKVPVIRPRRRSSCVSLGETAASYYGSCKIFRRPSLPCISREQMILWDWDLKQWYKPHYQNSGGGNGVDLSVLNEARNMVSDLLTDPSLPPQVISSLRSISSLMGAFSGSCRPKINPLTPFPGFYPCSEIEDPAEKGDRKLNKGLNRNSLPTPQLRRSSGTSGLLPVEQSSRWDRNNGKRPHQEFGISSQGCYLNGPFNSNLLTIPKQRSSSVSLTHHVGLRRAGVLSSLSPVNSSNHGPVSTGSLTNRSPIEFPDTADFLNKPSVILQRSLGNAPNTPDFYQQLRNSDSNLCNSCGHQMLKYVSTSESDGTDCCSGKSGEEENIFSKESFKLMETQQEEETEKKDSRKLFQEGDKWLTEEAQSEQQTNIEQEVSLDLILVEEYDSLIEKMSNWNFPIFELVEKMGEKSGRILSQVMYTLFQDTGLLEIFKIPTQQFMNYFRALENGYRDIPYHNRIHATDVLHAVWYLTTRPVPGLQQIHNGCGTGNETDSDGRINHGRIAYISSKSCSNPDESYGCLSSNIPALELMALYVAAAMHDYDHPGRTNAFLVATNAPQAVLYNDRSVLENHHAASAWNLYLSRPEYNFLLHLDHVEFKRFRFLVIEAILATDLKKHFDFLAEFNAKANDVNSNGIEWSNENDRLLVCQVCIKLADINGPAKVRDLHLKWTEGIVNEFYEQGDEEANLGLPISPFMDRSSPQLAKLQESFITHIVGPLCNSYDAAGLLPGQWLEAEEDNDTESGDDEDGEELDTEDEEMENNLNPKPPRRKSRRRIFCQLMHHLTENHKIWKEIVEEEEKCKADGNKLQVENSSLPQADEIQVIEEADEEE

[5] = target: High affinity 3',5'-cyclic-AMP phosphodiesterase 7A (Homo sapiens) (UniProt Q13946); experiment: Inhibition of PDE7A (unknown origin) using FAM-cyclic-3'5'-AMP as substrate at 10 uM incubated for 1 hrs by fluorescence polarization assay relative to control
High affinity 3',5'-cyclic-AMP phosphodiesterase 7A (Homo sapiens), sequence (Q13946 whole entry): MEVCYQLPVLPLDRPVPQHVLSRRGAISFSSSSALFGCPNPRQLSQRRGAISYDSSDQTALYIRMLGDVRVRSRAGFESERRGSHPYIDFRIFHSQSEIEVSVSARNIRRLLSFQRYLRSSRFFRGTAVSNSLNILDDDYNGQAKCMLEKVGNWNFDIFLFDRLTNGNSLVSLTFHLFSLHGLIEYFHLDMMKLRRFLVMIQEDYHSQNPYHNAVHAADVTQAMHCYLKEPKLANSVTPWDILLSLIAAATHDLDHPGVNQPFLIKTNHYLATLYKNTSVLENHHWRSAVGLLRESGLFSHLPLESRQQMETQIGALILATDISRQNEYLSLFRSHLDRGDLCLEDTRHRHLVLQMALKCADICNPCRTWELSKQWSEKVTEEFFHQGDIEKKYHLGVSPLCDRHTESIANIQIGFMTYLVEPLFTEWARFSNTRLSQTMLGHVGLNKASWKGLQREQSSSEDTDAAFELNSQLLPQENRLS

[6] = target: High affinity cAMP-specific and IBMX-insensitive 3',5'-cyclic phosphodiesterase 8A (Homo sapiens) (UniProt O60658); experiment: Inhibition of PDE8A (unknown origin) using FAM-cyclic-3'5'-AMP as substrate at 10 uM incubated for 1 hrs by fluorescence polarization assay relative to control
High affinity cAMP-specific and IBMX-insensitive 3',5'-cyclic phosphodiesterase 8A (Homo sapiens), sequence (O60658 whole entry): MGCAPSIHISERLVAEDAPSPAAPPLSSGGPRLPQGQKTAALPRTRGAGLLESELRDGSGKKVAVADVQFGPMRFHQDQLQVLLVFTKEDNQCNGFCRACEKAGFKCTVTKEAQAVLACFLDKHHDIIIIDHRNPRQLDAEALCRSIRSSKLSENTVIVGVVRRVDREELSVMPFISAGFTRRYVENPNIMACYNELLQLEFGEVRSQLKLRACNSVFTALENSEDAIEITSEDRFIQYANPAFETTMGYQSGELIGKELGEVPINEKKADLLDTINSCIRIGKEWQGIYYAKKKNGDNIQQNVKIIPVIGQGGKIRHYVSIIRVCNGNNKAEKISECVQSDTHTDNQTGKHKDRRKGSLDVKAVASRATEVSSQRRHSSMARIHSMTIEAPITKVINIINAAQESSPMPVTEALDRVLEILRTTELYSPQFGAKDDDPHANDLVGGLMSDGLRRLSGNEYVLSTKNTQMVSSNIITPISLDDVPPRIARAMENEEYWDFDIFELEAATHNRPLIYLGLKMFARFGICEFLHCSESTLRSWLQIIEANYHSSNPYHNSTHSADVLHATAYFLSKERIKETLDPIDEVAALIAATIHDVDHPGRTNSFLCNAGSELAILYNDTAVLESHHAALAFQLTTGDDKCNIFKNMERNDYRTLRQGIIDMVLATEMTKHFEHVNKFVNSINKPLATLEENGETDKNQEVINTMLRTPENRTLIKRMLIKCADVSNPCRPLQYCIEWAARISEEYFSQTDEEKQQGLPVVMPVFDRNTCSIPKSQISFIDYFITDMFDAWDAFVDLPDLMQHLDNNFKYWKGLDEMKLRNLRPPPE

[7] = target: High affinity cGMP-specific 3',5'-cyclic phosphodiesterase 9A (Homo sapiens) (UniProt O76083); experiment: Inhibition of PDE9A (unknown origin) using FAM-cyclic-3'5'-AMP as substrate at 10 uM incubated for 1 hrs by fluorescence polarization assay relative to control
High affinity cGMP-specific 3',5'-cyclic phosphodiesterase 9A (Homo sapiens), sequence (O76083 whole entry): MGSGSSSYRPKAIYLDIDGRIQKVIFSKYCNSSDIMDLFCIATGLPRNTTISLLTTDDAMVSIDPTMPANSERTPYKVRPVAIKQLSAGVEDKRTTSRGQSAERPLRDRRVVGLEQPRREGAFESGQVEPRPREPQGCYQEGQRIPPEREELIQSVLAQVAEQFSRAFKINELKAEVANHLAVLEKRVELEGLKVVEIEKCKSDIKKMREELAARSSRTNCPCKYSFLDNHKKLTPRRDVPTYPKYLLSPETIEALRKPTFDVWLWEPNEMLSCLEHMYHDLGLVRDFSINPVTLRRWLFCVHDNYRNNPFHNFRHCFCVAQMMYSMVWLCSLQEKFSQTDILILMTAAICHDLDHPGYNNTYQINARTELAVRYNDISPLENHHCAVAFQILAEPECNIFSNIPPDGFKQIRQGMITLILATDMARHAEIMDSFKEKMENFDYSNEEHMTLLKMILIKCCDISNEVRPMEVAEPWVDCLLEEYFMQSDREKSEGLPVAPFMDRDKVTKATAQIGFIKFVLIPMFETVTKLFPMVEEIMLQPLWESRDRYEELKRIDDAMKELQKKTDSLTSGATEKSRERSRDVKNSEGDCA

HT-22 = experiment: Cytotoxicity against mouse HT-22 cells at 10 to 30 uM; assay type: toxicity, cell-based; settings: ht-22, 30 µM, dose 10-30 µM
[8] = target: 3',5'-cyclic-AMP phosphodiesterase 4B (Homo sapiens, UniProt Q07343); experiment: Inhibition of PDE4B (unknown origin) using FAM-cyclic-3'5'-AMP as substrate incubated for 1 hrs by fluorescence polarization assay
3',5'-cyclic-AMP phosphodiesterase 4B, sequence (Q07343 whole entry): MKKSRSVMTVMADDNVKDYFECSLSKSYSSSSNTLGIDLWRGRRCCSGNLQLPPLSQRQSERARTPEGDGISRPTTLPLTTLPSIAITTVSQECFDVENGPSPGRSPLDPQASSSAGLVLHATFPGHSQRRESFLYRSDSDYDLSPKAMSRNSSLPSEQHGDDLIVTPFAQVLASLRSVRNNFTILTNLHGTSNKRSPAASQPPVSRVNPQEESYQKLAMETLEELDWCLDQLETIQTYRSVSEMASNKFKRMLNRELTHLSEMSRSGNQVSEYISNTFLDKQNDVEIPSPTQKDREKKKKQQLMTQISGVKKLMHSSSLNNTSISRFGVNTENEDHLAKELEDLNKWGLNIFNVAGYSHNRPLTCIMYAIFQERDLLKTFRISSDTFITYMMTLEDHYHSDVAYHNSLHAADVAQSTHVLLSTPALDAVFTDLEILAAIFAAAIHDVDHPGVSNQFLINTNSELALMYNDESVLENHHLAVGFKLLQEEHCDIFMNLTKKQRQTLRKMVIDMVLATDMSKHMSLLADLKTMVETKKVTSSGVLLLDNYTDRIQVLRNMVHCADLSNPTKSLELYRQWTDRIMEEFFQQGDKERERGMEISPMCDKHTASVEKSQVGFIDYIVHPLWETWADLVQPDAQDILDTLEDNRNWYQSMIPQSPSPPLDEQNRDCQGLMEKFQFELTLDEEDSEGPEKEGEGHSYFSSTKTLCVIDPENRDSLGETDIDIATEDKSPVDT

[9] = target: T1, 3',5'-cyclic-AMP phosphodiesterase 4D; experiment: Inhibition of PDE4D (unknown origin) using FAM-cyclic-3'5'-AMP as substrate incubated for 1 hrs by fluorescence polarization assay
[10] = Selectivity ratio of IC50 for PDE3B (unknown origin) to IC50 for PDE4D (unknown origin)
[11] = Selectivity ratio of IC50 for PDE7A (unknown origin) to IC50 for PDE4D (unknown origin)
[12] = Selectivity ratio of IC50 for PDE8A (unknown origin) to IC50 for PDE4D (unknown origin)
[13] = Selectivity ratio of IC50 for PDE9A (unknown origin) to IC50 for PDE4D (unknown origin)
[14] = Acute toxicity in male C57BL/6J mouse assessed as body weight loss at 1 g/Kg, po administered for 14 days; assay type: organism-based; settings: in vivo, 1000 mg/kg, 336 h, time 14 day
[15] = Toxicity in ketamine/xylazine-induced anesthetic male C57BL/6J mouse model assessed as emetogenic potential by measuring reduction in anesthesia duration at 5 to 10 mg/kg, po preadministered with compound for 15 mins followed by ketamine/xylazine administration; assay type: organism-based; settings: in vivo, 0.25 h, dose 5-10 mg/kg
[16] = Oral bioavailability in male C57BL/6J mouse; assay type: ADME, organism-based; settings: in vivo
RAW264.7 [17] = experiment: Antiinflammatory activity against mouse RAW264.7 cells assessed as inhibition of LPS-induced IL-6 mRNA production at 10 uM incubated for 24 hrs by SYBR green quantitative PCR analysis; assay type: functional, cell-based
RAW264.7 [18] = experiment: Antiinflammatory activity against mouse RAW264.7 cells assessed as inhibition of LPS-induced TNF-alpha mRNA production at 10 uM incubated for 24 hrs by SYBR green quantitative PCR analysis; assay type: functional, cell-based
RAW264.7 [19] = experiment: Antiinflammatory activity against mouse RAW264.7 cells assessed as inhibition of LPS-induced iNOS mRNA production at 10 uM incubated for 24 hrs by SYBR green quantitative PCR analysis; assay type: functional, cell-based
Mus musculus [20] = experiment: Antiinflammatory activity against DSS-induced colitis C57BL/6J mouse model assessed as decrease in body weight loss at 10 mg/kg, po pretreated with DSS for 10 days followed by twice daily compound administration for 8 days starting from day 3 to day 10 and measured on day 6; assay type: functional, organism-based; settings: time 4.0 day
Mus musculus [21] = experiment: (§1) Antiinflammatory activity against DSS-induced colitis C57BL/6J mouse model assessed as reduction in mucosal damage in colon at 3 to 10 mg/kg, po pretreated with DSS for 10 days followed by twice daily compound administration for 8 days starting from day 3 to day 10 by H and E staining based analysis; assay type: functional, organism-based; settings: dose 3-10 mg/kg, time 8.0 day
Mus musculus [22] = experiment: as §1, with “lamina propria breakdown” for “mucosal damage”; assay type: functional, organism-based; settings: dose 3-10 mg/kg, time 8.0 day
Mus musculus [23] = experiment: as §1, with “inflammatory cell infiltration” for “mucosal damage”; assay type: functional, organism-based; settings: dose 3-10 mg/kg, time 8.0 day
Mus musculus [24] = experiment: as §1, with “crypt structure loss” for “mucosal damage”; assay type: functional, organism-based; settings: dose 3-10 mg/kg, time 8.0 day
Mus musculus [25] = experiment: Antiinflammatory activity against DSS-induced colitis C57BL/6J mouse model assessed as increase in colon length at 3 to 10 mg/kg, po pretreated with DSS for 10 days followed by twice daily compound administration for 8 days starting from day 3 to day 10; assay type: functional, organism-based; settings: dose 3-10 mg/kg, time 8.0 day
[26] = Acute toxicity in male C57BL/6J mouse assessed as animal death at 1 g/Kg, po administered for 14 days; assay type: organism-based; settings: in vivo, 1000 mg/kg, 336 h, time 14 day
Mus musculus [27] = experiment: Antiinflammatory activity against DSS-induced colitis C57BL/6J mouse model assessed as decrease in body weight loss at 3 mg/kg, po pretreated with DSS for 10 days followed by twice daily compound administration for 8 days starting from day 3 to day 10 relative to control; assay type: functional; design: scale not given: the % may be the effect or the level left; settings: time 8 day
Mus musculus [28] = experiment: Antiinflammatory activity against DSS-induced colitis C57BL/6J mouse model assessed as decrease in body weight loss at 10 mg/kg, po pretreated with DSS for 10 days followed by twice daily compound administration for 8 days starting from day 3 to day 10 relative to control; assay type: functional; design: scale not given: the % may be the effect or the level left; settings: time 8 day
Mus musculus [29] = experiment: Antiinflammatory activity against DSS-induced colitis C57BL/6J mouse model assessed as decrease in disease activity index at 10 mg/kg, po pretreated with DSS for 10 days followed by twice daily compound administration for 8 days starting from day 3 to day 10 relative to control; assay type: functional, organism-based; settings: time 8.0 day

With `COc1cc(-c2ccc(OC(F)F)c3nn(C4CC4)cc23)cc(OC)c1OC` the inhibition [1] was 86%, the IC50 [2] was 10.5 nM and the inhibition [3] was 42%. For the same compound, the inhibition [4] was 6%, the inhibition [5] was 14% and the inhibition [6] was 12%. The inhibition [7] was 7%, the Activity (HT-22) was “Non-Toxic” and the IC50 [8] was 64.4 nM. For the same compound, the IC50 [9] was 65.7 nM, the Ratio IC50 [10] was over 156 and the Ratio IC50 [11] was over 156. For the same compound, the Ratio IC50 [12] was over 156, the Ratio IC50 [13] was over 156 and the Activity [14] was “Non-Toxic”. The Activity [15] was “Non-Toxic”, the bioavailability [16] was 5% and the Activity (RAW264.7 [17]) was “Active”. The Activity (RAW264.7 [18]) was “Active”, the Activity (RAW264.7 [19]) was “Active” and the Activity (Mus musculus [20]) was “Active”. For the same compound, the Activity (Mus musculus [21]) was “Active”, the Activity (Mus musculus [22]) was “Active” and the Activity (Mus musculus [23]) was “Active”. For the same compound, the Activity (Mus musculus [24]) was “Active”, the Activity (Mus musculus [25]) was “Active” and the Activity [26] was “Non-Toxic”. For the same compound, the Activity (Mus musculus [27]) was 16.7%, the Activity (Mus musculus [28]) was 4.9% and the Activity (Mus musculus [29]) was “Active”.
